Columns and labels:
CCRL2 [1] = details: cited from earlier work; for calcium mobilization and chemotaxis through CCRL2: ref [20], not confirmed by other groups [23]
Description: (§1) […]. CMKLR1 is coupled to the Gi/o family of G proteins and in cells ...

CCRL2 [2] = assay: G protein BRET assay, CCRL2; type: cell-based, human; details: CCRL2, HEK293T; 100 nM chemerin, 1 minute
Description: (§2) G protein activation was assayed by BRET as previously described. Briefly, plasmids encoding G protein biosensors and receptors of interest were co-transfected into HEK293T cells by using the calcium phosphate method. Forty-eight hours after transfection, cells were washed twice with PBS, detached and resuspended in PBS plus 0.1% (w/v) glucose at room temperature. Cells were then distributed (80 μg of proteins per well) in a 96-well microplate (Optiplate, PerkinElmer). BRET^2 between RLuc8 and GFP10 was measured 1 min after addition of coelenterazine 400a/Deep blue C (5 μM, Gentaur). BRET readings were collected using an Infinite F200 reader (Tecan). The BRET signal was calculated as the ratio of emission of GFP10 (510–540 nm) to RLuc8 (370–450 nm).
(§3) As controls, cells expressing the α2c adrenergic receptor (Gαi/o) were stimulated with UK14304; cells expressing the AT1 angiotensin receptor (Gα11/q) were stimulated with angiotensin II; cells expressing the β2 adrenergic receptor (Gαs) were stimulated with isoproterenol; cells expressing thromboxane A2 receptor (Gα12/13) were stimulated with U46619. Data represent the mean ± S.E.M. of three to six independent experiments. Statistical significance was assessed using Tukey's test (***P < 0.0001).

GPR44/CRTH2 = assay: G protein BRET assay, negative control GPR44/CRTH2; type: cell-based; details: HEK293T, 100 nM chemerin, 1 minute
Description: as §2, §3

GPR33 = assay: G protein BRET assay, negative control GPR33; type: cell-based; details: HEK293T, 100 nM chemerin, 1 minute
Description: as §2, §3

FPR1 = assay: G protein BRET assay, negative control FPR1; type: cell-based; details: HEK293T, 100 nM chemerin, 1 minute
Description: as §2, §3

CCRL2 [3] = assay: β-arrestin BRET recruitment assay, CCRL2; type: cell-based, human; details: β-arrestin1-Rluc or β-arrestin2-Rluc, CCRL2-Venus, HEK293T; 100 nM chemerin; 25°C
Description: β-arrestin recruitment was measured by a BRET proximity assay as previously described. Briefly, plasmids encoding Rluc-β-arrestin 2 and receptors fused to Venus were cotransfected into HEK293T cells by using the calcium phosphate method. Twenty-four hours post-transfection, cells were collected and seeded in 96-well microplates (165306, Nunc) and cultured for an additional 24 h. Cells were then rinsed once with PBS and incubated in PBS plus 0.1% (w/v) glucose at 25°C to slow down kinetics of arrestin recruitment and improve temporal resolution. BRET^1 between RLuc and YFP was measured after the addition of coelenterazine h (5 μM, Promega). […] The BRET signal was calculated as the ratio of emission of YFP (520–570 nm) to RLuc (370–480 nm).
Fig 6 Recruitment of β-arrestins by CMKLR1 and GPR1. […] Data represent the mean ± S.E.M. of three independent experiments.

CCRL2 [4] = assay: Intracellular calcium mobilization (aequorin), CCRL2; type: cell-based, human; details: CCRL2, CHO-K1, aequorin
Description: Calcium mobilization was measured by an aequorin-based assay as previously described. Briefly, CHO-K1 cells stably expressing apoaequorin and the receptors of interest were incubated for 4 h in the dark in the presence of 5 μM coelenterazine h (Promega) and then diluted before use to reach the appropriate cell density.
(§4) A. Calcium mobilization was measured in CHO-K1 cells using the aequorin-based functional assay. […] The results were normalized for the basal luminescence of the cells in absence of agonist (0%) and the maximal response obtained for each cell line with 10 μM ATP (100%). […] Data represent the mean ± S.E.M. of three independent experiments C. […] Detection of total ERK1/2 by Western blotting was used to ascertain that an equal amount of material was loaded in each lane (lower panel). A typical experiment out of three performed independently is shown.

CCRL2 [5] = assay: ERK1/2 phosphorylation in CHO-K1 cells, CCRL2; type: cell-based, human; details: 300 nM chemerin, immunoblot
Description: CHO-K1 and MEF cells stably expressing receptors of interest were starved for 12–18 h in serum-free medium prior to stimulation. […] Whole cell lysates were resolved on 10% Tris/Tricine polyacrylamide gels and transferred to nitrocellulose membranes. Phosphorylated ERK1/2 and total ERK1/2 were detected by using rabbit polyclonal anti-phospho-ERK1/2 (Cell Signaling #4370, 1:1,000) and anti-ERK1/2 (Cell Signaling #4695S, 1:2,000) antibodies. Chemiluminescent detection was performed using ECL-Plus reagent (Perkin Elmer).
as §4

CMKLR1 = details: cited from earlier work
Description: as §1

GPR1 [6] = details: ref [13], cited from earlier work
Description: as §1

[7] = system: leukocyte populations that express CMKLR1; details: ex vivo; dendritic cells, macrophages and natural killer cells; ref [1],[8]–[10]; cited from earlier work
Description: as §1

CCRL2 [8] = assay: Radiolabelled chemerin internalization (acid-wash), CCRL2; type: cell-based, human; details: CCRL2, CHO-K1; incubation at 28°C
Description: Cell surface receptor was detected by flow cytometry using a saturating concentration of antibodies specific for CMKLR1 (●), GPR1 (◯) or CCRL2 (△). Results were normalized for the fluorescence of unstimulated cells (100%) and for background fluorescence (0%). Data represent the mean ± S.E.M. of three independent experiments. […] Then, cells were either left at 4°C or shifted to 28°C to allow receptor internalization. After 90 minutes, cells were acid-washed and the amount of radioactivity remaining associated with the cells was measured. Data represent the mean ± S.E.M. of three independent experiments.

CCRL2 [9] = molecular target: T1, CCRL2 (human, UniProt O00421 1-344); assay: cell-based or functional assay
T1 sequence (looked up): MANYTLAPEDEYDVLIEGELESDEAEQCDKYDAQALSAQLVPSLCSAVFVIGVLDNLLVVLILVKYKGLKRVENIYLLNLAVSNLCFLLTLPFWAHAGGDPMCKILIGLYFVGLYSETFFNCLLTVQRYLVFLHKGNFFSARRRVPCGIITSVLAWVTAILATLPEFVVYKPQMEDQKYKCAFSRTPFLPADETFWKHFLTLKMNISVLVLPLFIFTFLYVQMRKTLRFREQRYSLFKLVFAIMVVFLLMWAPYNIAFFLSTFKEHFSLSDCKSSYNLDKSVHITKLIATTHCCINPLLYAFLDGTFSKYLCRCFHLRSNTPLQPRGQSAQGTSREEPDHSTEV

GPR1 [10] = molecular target: T2, GPR1 (human, UniProt P46091 1-355); assay: radioligand binding; competition: CHO-K1 cells expressing the receptor with 0.1 nM [125I]-chemerin as tracer and increasing concentrations of unlabelled chemerin or chemerin 9; 50 mM HEPES pH 7.4, 1 mM CaCl2, 5 mM MgCl2, 250 mM sucrose, 0.5% BSA; 30 min at room temperature; filtration; details: one partner purified
T2 construct: GPR1, human chemerin receptor, expressed on CHO-K1 cells; The functional rows with G protein biosensors (HEK293T, transfected) and with MEF cells also use this molecule; source: CHO-K1, stably expressing (Clone 8), on cells
T2 sequence (looked up): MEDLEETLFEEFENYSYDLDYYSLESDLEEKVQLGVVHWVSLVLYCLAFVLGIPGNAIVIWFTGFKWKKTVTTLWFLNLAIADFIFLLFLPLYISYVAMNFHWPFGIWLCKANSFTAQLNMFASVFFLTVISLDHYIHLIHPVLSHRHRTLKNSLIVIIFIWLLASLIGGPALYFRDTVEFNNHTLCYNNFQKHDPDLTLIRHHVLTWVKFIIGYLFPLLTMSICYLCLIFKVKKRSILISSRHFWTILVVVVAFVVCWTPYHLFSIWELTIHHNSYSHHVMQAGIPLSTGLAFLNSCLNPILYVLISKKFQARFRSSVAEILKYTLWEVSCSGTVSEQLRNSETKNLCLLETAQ

CCRL2 [11] = molecular target: T1, CCRL2; assay: as above; details: one partner purified

CCL2: chemokine
calcium mobilization and chemotaxis through CCRL2 (CCRL2 [1]): promotes calcium mobilization and chemotaxis

CCL7: chemokine
calcium mobilization and chemotaxis through CCRL2 (CCRL2 [1]): promotes calcium mobilization and chemotaxis

Chemerin: small chemotactic protein, natural ligand of CMKLR1; purchased from R&D Systems
G protein activation (CCRL2 [2]): none of the G proteins tested were activated by GPR1 or CCRL2 upon chemerin stimulation
G protein BRET signal (Gαi/o biosensors) (GPR44/CRTH2): generated signals of much weaker magnitude
G protein BRET signal (Gαi/o biosensors) (GPR33): generated signals of much weaker magnitude
G protein BRET signal (Gαi/o biosensors) (FPR1): generated signals of much weaker magnitude
β-arrestin recruitment (CCRL2 [3]): CCRL2 does not recruit β-arrestins
calcium mobilization (CCRL2 [4]): generated no detectable signals
phosphorylation of ERK1/2 (CCRL2 [5]): generated no detectable signals
calcium mobilization or ligand internalization (CCRL2 [1]; CCRL2, chemerin, ref [11]): does not induce calcium mobilization or ligand internalization
recruitment of β-arrestin2 to CMKLR1 (CMKLR1; introduction, no reference given): induces the recruitment of β-arrestin2 to CMKLR1
signaling in cells expressing CMKLR1 (CMKLR1; ref [7]): inhibits cAMP production and promotes phospholipase C activation, IP3 release, calcium mobilization as well as activation of PI3K and MAPK pathways
calcium mobilization (GPR1 [6]; GPR1, recombinant cell lines): activate weakly calcium mobilization in recombinant cell lines
down-regulation of GPR1 (GPR1 [6]): induces its rapid down-regulation
chemotaxis [7]: promotes chemotaxis of leukocyte populations that express CMKLR1

[^125I]-chemerin: R&DSystems, custom labelling performed by Perkin Elmer; tracer
radioactivity lost after acid-wash (chemerin internalization) (CCRL2 [8]): nearly all the radioactivity associated to cells expressing CCLR2 was lost after the acid-wash procedure

B1: Chemerin (unlabelled) (ligand, human, UniProt Q99969 21-157, looked up)
chain: ELTEAQRRGLQVALEEFHKHPPVQWAFQETSVESAVDTPFPAGIFVRLEFKLQQTSCRKRDWKKPECKVRPNGRKRKCLACIKLGSEDKVLGRLVHCPIETQVLREAEEHQETQCLRVQRAGEDPHSFYFPGQFAFS
notes: chemerin, human; also called full length chemerin; full size chemerin; source: bought: R&D Systems
t1/2 of down-regulation of the receptor from the cell surface (FACS, CHO-K1, 100 nM chemerin) (CCRL2 [9]): > 1 h
pIC50 (GPR1 [10]): 9.9
pIC50 (CCRL2 [11]): 9.1

B2: CCL5: chemokine (protein, UniProt P13501 24-91, looked up)
C-C motif chemokine 5: SPYSSDTTPCCFAYIARPLPRAHIKEYFYTSGKCSNPAVVFVTRKNRQVCANPEKKWVREYINSLEMS
calcium mobilization and chemotaxis through CCRL2 (CCRL2 [1]): promotes calcium mobilization and chemotaxis

B3: CCL8: chemokine (protein, UniProt P80075 24-99, looked up)
C-C motif chemokine 8: QPDSVSIPITCCFNVINRKIPIQRLESYTRITNIQCPKEAVIFKTKRGKEVCADPKERWVRDSMKHLDQIFQNLKP
calcium mobilization and chemotaxis through CCRL2 (CCRL2 [1]): promotes calcium mobilization and chemotaxis

Reference: PMC5055294 (PLoS ONE, 2016)
